Earlier results on 1 molecule are cited in paper PMC11054271, “ABCG2 Transports the Flukicide Nitroxynil and Affects Its Biodistribution and Secretion into Milk” (Pharmaceutics, 2024).

Molecules are shown by their SMILES.

The test system of the series is Abcg2. Further details: method as in PMID 34062171. Conditions: mice; cited from earlier work.

As for `Cc1c(Cl)cccc1Nc1ccccc1C(=O)O` [tolfenamic acid], the “Testis accumulation, fold higher in Abcg2−/− compared to wild-type” value was approximately 3 fold.
